Assay results reported in PubChem BioAssay (NCI).
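Interpolation was linear, between the two tested concentrations surrounding the appropriate level; five concentrations were tested over 48 hours in 96-well plates. GI50 is the concentration that inhibits growth by half. At the TGI there is no net growth.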

How the values were obtained:
Test in all cases: NCI-60 cell line screen, 48 h
SF-295 CNS = system: SF-295 CNS
HCC-2998 colon = system: HCC-2998 colon
NCI-H23 lung = system: NCI-H23 lung
HL-60(TB) leukemia = system: HL-60(TB) leukemia
MALME-3M melanoma = system: MALME-3M melanoma
M14 melanoma = system: M14 melanoma
SNB-75 CNS = system: SNB-75 CNS
RPMI-8226 leukemia = system: RPMI-8226 leukemia
KM12 colon = system: KM12 colon
HS 578T breast = system: HS 578T breast

| Compound | TGI (SF-295 CNS) | TGI (HCC-2998 colon) | TGI (NCI-H23 lung) | TGI (HL-60(TB) leukemia) | TGI (MALME-3M melanoma) | TGI (M14 melanoma) | TGI (SNB-75 CNS) | TGI (RPMI-8226 leukemia) | TGI (KM12 colon) | GI50 (SF-295 CNS) | GI50 (HCC-2998 colon) | GI50 (NCI-H23 lung) | GI50 (HL-60(TB) leukemia) | GI50 (MALME-3M melanoma) | GI50 (M14 melanoma) | GI50 (SNB-75 CNS) | GI50 (RPMI-8226 leukemia) | GI50 (KM12 colon) | GI50 (HS 578T breast) | TGI (HS 578T breast) |
| --- | --- | --- | --- | --- | --- | --- | --- | --- | --- | --- | --- | --- | --- | --- | --- | --- | --- | --- | --- | --- |
| CC(C)=CC(=O)Cc1nc2ccccc2[nH]c1=O | > 100 µM | > 100 µM | > 100 µM | > 100 µM | > 100 µM | > 100 µM | > 100 µM | > 100 µM | > 100 µM |  |  |  |  |  |  |  |  |  |  |  |
| O=C(O)C(/C=C/c1ccco1)=N\Nc1nc(-c2ccc(Cl)cc2)cs1 | 4.23 µM | > 50 µM | > 50 µM | > 50 µM | > 50 µM | > 50 µM | > 50 µM | > 50 µM | > 50 µM | 0.842 µM | 14.2 µM | 15.2 µM | 17.1 µM | 35.8 µM | 12.7 µM | 23.1 µM | 15.8 µM | 11.2 µM |  |  |
| O=S(=O)(O)C(F)(F)C(F)(F)C(F)(F)C(F)(F)F | > 100 µM | > 100 µM | > 100 µM | > 100 µM | > 100 µM | > 100 µM | > 100 µM | > 100 µM | > 100 µM |  |  |  |  |  |  |  |  |  |  |  |
| CCN=C1NN=C(c2ccccc2)c2cc(Cl)ccc2N1 | 37.5 µM | 34.4 µM | 64.6 µM | 62.3 µM | 33.7 µM | 33.5 µM | 45.8 µM | 87.1 µM | 31.1 µM |  |  |  |  |  |  |  |  |  |  |  |
| CCNC(=O)C(O)C1(O)CCC2[C@@H]3CCC4=CC(=O)C=C[C@]4(C)C3[C@@H](O)C[C@@]21C (stereo partly drawn) | > 100 µM | > 100 µM | > 100 µM | > 79.4 µM | > 100 µM | > 100 µM | > 100 µM | > 100 µM | > 100 µM |  |  |  |  |  |  |  |  |  |  |  |
| CCOC(=O)c1sc(=S)c2c(C(=O)c3ccccc3)c(C(=O)c3ccccc3)sc2c1C(=O)OCC | 13.5 µM |  |  | 7.58 µM |  | > 100 µM | > 100 µM | 9.19 µM | 11 µM | 2.86 µM |  |  | 2.71 µM |  | 5.56 µM | 22.6 µM | 2.87 µM | 2.44 µM | 3.54 µM | 61.1 µM |
| C[C@]12CC[C@H]3[C@@H](CCC4=CC(=O)CC[C@@H]43)[C@@H]1CC[C@@H]2OC1(O)C(=O)c2ccccc2C1=O | > 100 µM | > 100 µM | 62.5 µM |  | > 100 µM | > 100 µM | > 100 µM | 80 µM | > 100 µM |  |  |  |  |  |  |  |  |  |  | > 100 µM |
| CCCCCCn1c(-c2ccc(C(=O)O/N=C(\N)c3ccc(OC)cc3)cc2)nc(-c2ccccc2)c1-c1ccccc1 | 3.07 µM | 4.81 µM | 2.93 µM |  | 3.55 µM |  | 3.09 µM | 3.9 µM | > 100 µM | 1.61 µM | 2.09 µM | 1.31 µM |  | 1.75 µM |  | 1.29 µM | 1.42 µM | 2.81 µM | 1.2 µM | 3.1 µM |
| COc1ccccc1NC(=O)CC(=O)n1nc(C)c(N=Nc2ccccc2F)c1C | > 100 µM | > 100 µM | > 100 µM | > 100 µM |  | > 100 µM | 28.3 µM | > 100 µM | > 100 µM |  |  |  |  |  |  |  |  |  |  |  |
| c1ccc(-c2nc(Nc3ccc(-c4nc5ccccc5[nH]4)cc3)nc(N3CCOCC3)n2)cc1 | 2.84 µM |  | 4.78 µM | 0.601 µM | 3.85 µM | 2.9 µM | 3.15 µM | 4.23 µM | 3.19 µM | 1.25 µM |  | 2.07 µM | 0.031 µM | 2 µM | 1.34 µM | 1.63 µM | 1.11 µM | 1.62 µM | 1.89 µM | 6.04 µM |
| CCCOc1ccc(/C=C\c2cc(OC)c(OC)c(OC)c2)cc1 | > 100 µM |  |  | > 100 µM | > 100 µM | > 100 µM | > 100 µM | > 100 µM | 89.5 µM |  |  |  |  |  |  |  |  |  |  |  |
| N#CCCc1nc2ccc(Br)cc2c(=O)n1-c1ccc(O)c([N+](=O)[O-])c1 | 47.8 µM | 37.4 µM | 42 µM | 41.9 µM | 33.3 µM | 44.7 µM | 83.2 µM | 40 µM | 34.5 µM |  |  |  |  |  |  |  |  |  |  |  |
| COC(=O)c1c/c(=N\NC(=O)CC(=O)Nc2ccccc2Cl)c2ccccc2o1 | > 100 µM | > 100 µM | > 100 µM | > 100 µM |  | > 100 µM | > 100 µM | > 100 µM | > 100 µM |  |  |  |  |  |  |  |  |  |  |  |
| CCCCCCCCCCCCCCCCC(C(=O)O)C(O)(CC(=O)O)C(=O)O (stereo not drawn) | 35.5 µM |  | 64.6 µM | 34.4 µM | > 100 µM | 47.7 µM | 43.8 µM | 74.8 µM | 37.3 µM |  |  |  |  |  |  |  |  |  |  | 58.6 µM |
| COc1ccc(Cl)cc1N1C(=O)C(Cl)=C(Nc2cccc(O)c2)C1=O | 82.9 µM |  | 41.4 µM |  | 50.4 µM | 29.9 µM |  | 32.3 µM | > 100 µM | 17.1 µM |  | 16.6 µM |  | 14.5 µM | 14 µM |  | 7.01 µM | 28.7 µM | 15.8 µM | 46.2 µM |
| CCCCCCCCCCCCCCCC(=O)NC1CCc2cc(O)c(O)c(O)c2-c2ccc(SC)c(=O)cc21 (stereo not drawn) | 13.7 µM | 20.9 µM | 16.6 µM | > 36.7 µM | 28.5 µM | 25 µM | 9.13 µM | > 100 µM | 20.3 µM |  |  |  |  |  |  |  |  |  |  |  |
| CC1C(=O)N=C2C(=CN(Cc3ccccc3)c3ccccc32)C(=O)N1C (stereo not drawn) |  | > 100 µM | > 100 µM |  | > 100 µM | > 100 µM | > 100 µM | > 100 µM | > 100 µM |  |  |  |  |  |  |  |  |  |  |  |
| O=[N+]([O-])c1ccc(Cc2nc3ccccc3s2)cc1 | > 100 µM | > 100 µM | > 100 µM | > 100 µM | > 100 µM | > 100 µM | > 100 µM | > 100 µM | > 100 µM |  |  |  |  |  |  |  |  |  |  |  |
| C=CCOc1cc2c(cc1C(C)c1ccc(OC)cc1)OCO2 (stereo not drawn) | 0.817 µM | 12.7 µM | > 100 µM | 2.6 µM | > 100 µM | > 42.8 µM | 0.527 µM | > 74.4 µM | 65.9 µM |  |  |  |  |  |  |  |  |  |  |  |
| CC1(C)CCSC(/C=C/c2ccccc2)=N1 | 40.7 µM |  | 33.9 µM | > 100 µM | 25.6 µM | 27 µM |  | 62.6 µM | 26.1 µM |  |  |  |  |  |  |  |  |  |  | > 100 µM |
